# Laboratory results as given in patent US20230348394A1, “COMPOSITIONS AND METHODS FOR TREATING MUSCULAR DYSTROPHIES” (The Regents of the University of California, priority 2020, published 2023).
# Tests used:
# [1] = test system: SSPN mRNA; test: SSPN gene expression in C2C12, H2K WT and H2K mdx myoblasts; assay type: cell-based, murine; conditions: 24 hours, 1, 5 and 10 μM
# Method: FIG. 9. OT-9 is effective in multiple myoblast lines. […] Myoblasts were treated for 24 hours with 1, 5, and 10 μM of OT-9 or PC1-36. Gene expression was normalized to β-actin and vehicle-treated cells (0.1% DMSO). Data represents individual replicates and mean value. n=3-6. SSPN, sarcospan; R.U., relative units. *p<0.05, **p<0.01, ***p<0.001, ****p<0.0001.
# RNA from myotubes treated for 48 hrs was extracted from cells using Trizol-based (Thermo Fisher Scientific) phase separation, Chomczynski et al., Biotechniques. 1993; 15(3):532-4, 6-7. RNA concentrations were determined using a NanoDrop 1000 (Thermo Fisher Scientific) and 750 ng of RNA in a 20 Id reaction was reverse transcribed using iScript cDNA synthesis (Bio-Rad) with the following cycling conditions: 25° C. for 5 mins, 42° C. for 30 mins, 85° C. for 5 mins. For mouse qPCR, SsoFast EvaGreen Supermix (Bio-Rad), 400 nM of each optimized forward and reverse primer (SSPN F: 5′ […] 3′, SSPN R: 5′ […] 3′, BACT F: 5′ […] 3′, BACT R: 5′ […] 3′), and cDNA corresponding to 37.5 ng RNA were used to amplify cDNA measured by QuantStudio 5 Real-Time PCR System (Thermo Fisher Scientific) with the following reaction conditions: 55° C. for 2 mins, 95° C. for 2 mins, 40 cycles of 95° C. for 10 seconds and 62° C. for 30 seconds, and dissociation stage. […]
# [2] = test system: alpha-dystroglycan (α-DG) at the cell surface; test: Cell surface protein biotinylation and immunoblot, C2C12 myotubes; assay type: cell-based, murine; conditions: 5 μM, 48 hours
# Method: Myotubes treated for 48 hrs were lysed using RIPA buffer (Thermo Fisher Scientific) containing Halt Protease Inhibitor Cocktail (Thermo Fisher Scientific). Cell lysates in RIPA buffer were rocked for 1 hr at 4° C. and centrifuged at 1,000 RPM for 30 mins at 4° C. The supernatant was collected, quantified for protein concentration using the DC protein assay (Bio-Rad), and normalized to 2 mg/ml in water and Laemmli sample buffer with a final concentration of 10% glycerol (Sigma-Aldrich), 5% beta-mercaptoethanol (Sigma-Aldrich), 3% sodium dodecyl sulfate (Sigma-Aldrich), and 0.05% bromophenol blue (Sigma-Aldrich). For SDS-PAGE, samples were heated to 95° C. for 2 mins before loading 40 μg onto 4-12% tris-glycine or bis-tris polyacrylamide gels (Novex), electrophoresed for 2 hrs at 100 volts at RT, and transferred to a nitrocellulose membrane for 2 hrs at 100 volts at 4° C. Ponceau S staining was performed to visualize protein loading and verify protein transfer. […] Autoradiography films were developed using a SRX-101A tabletop processor (Konica Minolta), scanned to a digital file, and analyzed by densitometry of bands using ImageJ version 1.51 s. […]
smiles,measurement,setting,value
CCN(CC)c1ccc2cc(C(=O)Nc3ccc(C(=O)N4CCCCCC4)cc3)c(=O)oc2c1 [OT-9],SSPN mRNA levels in myoblasts,[1],increased SSPN mRNA levels in all myoblast lines
same,increase of core α-DG at the cell surface,[2],1.6 fold
same,increase of glycosylated α-DG at the cell surface,[2],1.8 fold
